What all share (assay type): cell-based
For data set [1], the system named is Herpes simplex type 1 virus (HFEM strain). Nature of the data set: Plaque reduction test in virus-infected Vero cells. As for the experimental part:
(§1) Vero (African Green Monkey Kidney) cells were grown to confluence in 24 well multidishes, each well being 1.6cm in diameter. The cells were infected with Herpes simplex type 1 virus (HFEM strain) and overlaid with 0.5ml of 0.9% agarose (w/v) in maintenance medium. Test compounds prepared in maintenance medium in concentrations ranging from 100 to 0.03pg/ml in half-log dilution steps, were added in 0.5ml volume. The virus infected cultures were then incubated at 37° for 4 days before fixing in 4% formaldehyde solution and staining with carbolfuchsin.

Data set [2] can be described thus: in vitro. The note with it: african green monkey, vero cells. The protocol:
as §1

A short description of data set [3]: in vitro. Particulars: african green monkey; minimum concentration of test compound which caused cytotoxicity; Vero cells, 4 days at 37°; highest concentration tested 100; read-out: MTD.
The test system of data set [4] is Vero (African Green Monkey Kidney) cells. Nature of the data set: in vitro. Particulars: minimum concentration of test compound which caused cytotoxicity; Vero cells, 4 days at 37°; highest concentration tested 100. The protocol: as §1
The mark [5] stands for this setting: Human alphaherpesvirus 1, Vero, 96 h, read-out: PDD50, concentration causing 50% reduction in number of virus plaques, HSV-1 HFEM strain, 4 days at 37°.
Setting [6] is: Human alphaherpesvirus 1, 96 h, concentration causing 50% reduction in number of virus plaques, HSV-1 HFEM strain, 4 days at 37°, molar units, read-out: PDD50 (the source's name).
Where [7] appears, read: Human alphaherpesvirus 1, 96 h, concentration causing 50% reduction in number of virus plaques, HSV-1 HFEM strain, 4 days at 37°, read-out: PDD50 (the source's name).
Where [8] appears, read: Human alphaherpesvirus 1, Vero, 96 h, read-out: PDD50, concentration causing 50% reduction in number of virus plaques, HSV-1 HFEM strain, 4 days at 37°, molar units.

Molecules are shown by their SMILES. Counter-ions that a name gives are not always drawn. Like-named read-outs stand apart in the source and are kept apart here.

As for `CCOC(=O)OC[C@H]1O[C@@H](n2cc(/C=C/Br)c(=O)[nH]c2=O)C[C@@H]1OC(=O)CCC(=O)[O-].[Na+]`, in data set [1] (setting [5]), the IC50 was 6.3 µg/mL.
Take `COC(=O)OC[C@H]1O[C@@H](n2cc(/C=C/Br)c(=O)[nH]c2=O)C[C@@H]1OC(=O)OC` [Example 1, 5-(E-2-Bromovinyl)-2'-deoxy-3',5'-bis-0-methoxycarbonyl-uridine]: the IC50 worked out at 11800 nM in data set [1] (setting [6]) and 5.3 µg/mL in data set [1] (setting [7]). The MCC at 96 h in “in vitro [2]” is > 100 µg/mL.
For `COC(=O)O[C@H]1C[C@H](n2cc(/C=C/Br)c(=O)[nH]c2=O)O[C@@H]1CO` [Example 2, 5-(E-2-Bromovinyl)-2'-deoxy-3'-0-methoxycarbonyluridine] the same measures were 1900 nM, 0.74 µg/mL and > 100 µg/mL.
For `COC(=O)OC[C@H]1O[C@@H](n2cc(/C=C/Br)c(=O)[nH]c2=O)C[C@@H]1O` [Example 3, 5-(E-2-Bromovinyl)-2'-deoxy-5'-O-methoxycarbonyluridine] the same measures were 3800 nM, 1.5 µg/mL and > 100 µg/mL.
With `CCOC(=O)OC[C@H]1O[C@@H](n2cc(/C=C/Br)c(=O)[nH]c2=O)C[C@@H]1OC(=O)OCC` [Example 4, 5-(E-2-Bromovinyl)-2'-deoxy-3',5'-bis-0-ethoxycarbonyluridine], the IC50 in data set [1] (setting [6]) amounted to 2300 nM; in data set [1] (setting [7]), 1.1 µg/mL. In addition, the MCC at 96 h in the data set “in vitro [2]” is > 100 µg/mL.
As for `CCOC(=O)OC[C@H]1O[C@@H](n2cc(/C=C/Br)c(=O)[nH]c2=O)C[C@@H]1O` [Example 5, 5-(E-2-Bromovinyl)-2'-deoxy-5'-0-ethoxycarbonyluridine], the IC50 worked out at 700 nM in data set [1] (setting [6]) and 0.28 µg/mL in data set [1] (setting [7]). In addition, the MCC at 96 h in “in vitro [2]” is > 100 µg/mL.
On to `CCOC(=O)O[C@H]1C[C@H](n2cc(/C=C/Br)c(=O)[nH]c2=O)O[C@@H]1CO` [Example 6, 5-(E-2-Bromovinyl)-2'-deoxy-3'-0-ethoxycarbonyluridine], for which the IC50 in data set [1] (setting [6]) was 1100 nM; in data set [1] (setting [7]) it was 0.43 µg/mL. Also, the MCC at 96 h in the data set “in vitro [2]” was > 100 µg/mL.
Consider `CCOC(=O)n1c(=O)c(/C=C/Br)cn([C@H]2C[C@H](O)[C@@H](CO)O2)c1=O` [Example 7, 5-(E-2-Bromovinyl)-2'-deoxy-3-ethoxycarbonyluridine], for which the IC50 in data set [1] (setting [6]) worked out at 12300 nM; in data set [1] (setting [7]) it was 5 µg/mL. The MCC at 96 h in “in vitro [3]” was > 100 µg/mL.
As to `CCCCC(=O)O[C@H]1C[C@H](n2cc(/C=C/Br)c(=O)n(C(=O)CCCC)c2=O)O[C@@H]1COC(=O)OCC` [Example 8, 5-(E-2-Bromovinyl)-2'-deoxy-5'-0-ethoxycarbonyl-3,3'-0-bisvaleryluridine], the IC50 in data set [1] (setting [6]) amounted to 3000 nM; in data set [1] (setting [7]) it was 1.7 µg/mL. In the data set “in vitro [2]”, the MCC at 96 h was > 100 µg/mL.
The matching figures for `CCCCC(=O)O[C@H]1C[C@H](n2cc(/C=C/Br)c(=O)[nH]c2=O)O[C@@H]1COC(=O)OCC` [Example 9, 5-(E-2-Bromovinyl)-2'-deoxy-5'-O-ethoxyarbonyl-3'-O-valeryluridine]: 3000 nM, 1.5 µg/mL and > 100 µg/mL.
As for `CCCCC(=O)n1c(=O)c(/C=C/Br)cn([C@H]2C[C@H](O)[C@@H](COC(=O)OCC)O2)c1=O` [Example 10, 5-(E-2-Bromovinyl)-2'-deoxy-5'-0-ethoxycarbonyl-3-valeryl-uridine], the IC50 was 6700 nM in data set [1] (setting [6]) and 3.3 µg/mL in data set [1] (setting [7]). Also, the MCC at 96 h in the data set “in vitro [2]” was > 100 µg/mL.
Regarding `CCOC(=O)OC[C@H]1O[C@@H](n2cc(/C=C/Br)c(=O)[nH]c2=O)C[C@@H]1OP(=O)([O-])[O-].[Na+].[Na+]` [Example 12, 5-(E-2-Bromovinyl)-2'-deoxy-5'-O-ethoxycarbonyluridine 3'-Phosphate Disodium Salt], the IC50 in data set [1] (setting [5]) came to 12 µg/mL; in data set [1] (setting [8]) it was 23000 nM. Further, the MTD in data set [4] was >100 µg/mL.
In the case of `CCOC(=O)OC[C@H]1O[C@@H](n2cc(/C=C/Br)c(=O)[nH]c2=O)C[C@@H]1OP(=O)(O)O` [Example 13, 5-(E-2-Bromovinyl)-2'-deoxy-5'-0-ethoxycarbonyluridine 3'-Phosphate Monosodium Salt], the IC50 came to 7500 nM in data set [1] (setting [6]) and 3.8 µg/mL in data set [1] (setting [7]). In “in vitro [3]”, the MCC at 96 h was > 100 µg/mL.
As to `CCCOC(=O)OC[C@H]1O[C@@H](n2cc(/C=C/Br)c(=O)[nH]c2=O)C[C@@H]1O` [Example 14, 5-(E-2-Bromovinyl)-2'-deoxy-5'-0-propoxycarbcnyluridine], the IC50 in data set [1] (setting [6]) amounted to 900 nM; in data set [1] (setting [7]), 0.39 µg/mL. The MCC at 96 h in the data set “in vitro [2]” is > 100 µg/mL.
Take `CCCCOC(=O)OC[C@H]1O[C@@H](n2cc(/C=C/Br)c(=O)[nH]c2=O)C[C@@H]1O` [Example 15, 5-(E-2-Bromovinyl)-5'-0-n-butoxycarbonyl-2'-deoxyuridine]: the results for the IC50 in data set [1] (setting [6]) and in data set [1] (setting [7]) were 600 nM and 0.25 µg/mL, respectively. Besides, the MCC at 96 h in the data set “in vitro [2]” is > 100 µg/mL.
For the compound `CC(C)COC(=O)OC[C@H]1O[C@@H](n2cc(/C=C/Br)c(=O)[nH]c2=O)C[C@@H]1OC(=O)OCC(C)C` [Example 16, 5-(E-2-Bromovinyl)-3',5'-bis-0-isobutoxycarbonyl-2'-deoxyuridine], the IC50 in data set [1] (setting [6]) was 800 nM; in data set [1] (setting [7]) it was 0.44 µg/mL. Also, the MCC at 96 h in the data set “in vitro [2]” is 100 µg/mL.
In the case of `CC(C)COC(=O)OC[C@H]1O[C@@H](n2cc(/C=C/Br)c(=O)[nH]c2=O)C[C@@H]1O` [Example 17, 5-(E-2-Bromovinyl)-5'-O-isobutoxycarbonyl-2'-deoxyuridine], the IC50 came to 500 nM in data set [1] (setting [6]) and 0.22 µg/mL in data set [1] (setting [7]). In “in vitro [2]”, the MCC at 96 h was > 100 µg/mL.
The matching figures for `CC(C)(C)OC(=O)OC[C@H]1O[C@@H](n2cc(/C=C/Br)c(=O)[nH]c2=O)C[C@@H]1O` [Example 18, 5-(E-2-Bromovinyl)-5'-O-t-butoxycarbonyl-2'-deoxyuridine]: 700 nM, 0.28 µg/mL and > 100 µg/mL.
For `CC(C)(C)OC(=O)OC[C@H]1O[C@@H](n2cc(/C=C/Br)c(=O)[nH]c2=O)C[C@@H]1OC(=O)OC(C)(C)C` [Example 19, 5-(E-2-Bromovinyl)-3',5'-bis-O-t-butoxycarbonyl-2^1-deoxyuridine] the same measures were 3800 nM, 2 µg/mL and > 100 µg/mL.
The matching figures for `CC(C)(C)OC(=O)O[C@H]1C[C@H](n2cc(/C=C/Br)c(=O)[nH]c2=O)O[C@@H]1CO` [Example 20, 5-(E-2-Bromovinyl)-3'-O-t-butoxycarbonyl-2^1-deoxyuridine]: 400 nM, 0.18 µg/mL and > 100 µg/mL.
`C=CCOC(=O)OC[C@H]1O[C@@H](n2cc(/C=C/Br)c(=O)[nH]c2=O)C[C@@H]1O` [Example 21, 5'-0-Allyloxycarbonyl-5-(E-2-bromovinyl)-2'-deoxyuridine]: the IC50 in data set [1] (setting [6]) was determined as 1700 nM; in data set [1] (setting [7]), 0.72 µg/mL. Also, the MCC at 96 h in the data set “in vitro [2]” was > 100 µg/mL.
Regarding `O=C(OCc1ccccc1)OC[C@H]1O[C@@H](n2cc(/C=C/Br)c(=O)[nH]c2=O)C[C@@H]1O` [Example 22, 5'-O-Benzyloxycycarbonyl-5-(E-2-bromovinyl)-2'-deoxyuridine], the IC50 was 100 nM in data set [1] (setting [6]) and 0.05 µg/mL in data set [1] (setting [7]). Besides, the MCC at 96 h in the data set “in vitro [2]” is > 100 µg/mL.
For `O=C(OC[C@H]1O[C@@H](n2cc(/C=C/Br)c(=O)[nH]c2=O)C[C@@H]1O)Oc1ccccc1` [Example 23, 5-(E-2-Bromovinyl)-5'-0-phenoxycarbonyl-2'-deoxyuridine] the same measures were 400 nM, 0.18 µg/mL and > 100 µg/mL.
In the case of `O=C(OC[C@H]1O[C@@H](n2cc(/C=C/Br)c(=O)[nH]c2=O)C[C@@H]1O)Oc1ccc([N+](=O)[O-])cc1` [Example 24, 5-(E-2-Bromovinyl)-2'-deoxy-5'-O-(p-nitrophenoxycarbonyl)uridine], the IC50 was 1200 nM in data set [1] (setting [6]) and 0.6 µg/mL in data set [1] (setting [7]). Besides, the MCC at 96 h in the data set “in vitro [2]” turned out to be 100 µg/mL.
For the compound `CC(C)OC(=O)OC[C@H]1O[C@@H](n2cc(/C=C/Br)c(=O)[nH]c2=O)C[C@@H]1O` [Example 25, 5-(E-2-Bromovinyl)-2'-deoxy-5'-0-isopropoxycarbonyluridine], the IC50 in data set [1] (setting [6]) worked out at 2100 nM; in data set [1] (setting [7]) it was 0.88 µg/mL. Also, the MCC at 96 h in the data set “in vitro [2]” was > 100 µg/mL.
Regarding `O=C(OCCO)OC[C@H]1O[C@@H](n2cc(/C=C/Br)c(=O)[nH]c2=O)C[C@@H]1O` [Example 26, 5-(E-2-Bromovinyl)-2'-deoxy-5'-0-(2-hydroxyethox^ycarbonyl)-uridine], the IC50 worked out at 1800 nM in data set [1] (setting [6]) and 0.76 µg/mL in data set [1] (setting [7]). Moreover, in “in vitro [2]”, the MCC at 96 h was > 100 µg/mL.
For `C=Cc1cn([C@H]2C[C@H](O)[C@@H](COC(=O)OCC)O2)c(=O)[nH]c1=O` [Example 27, 2^1-Deoxy-5^1-O-ethoxycarbonyl-5-vinyluridine] the same measures were 4600 nM, 1.5 µg/mL and > 100 µg/mL.
With `CCOC(=O)OC[C@H]1O[C@@H](n2cc(/C=C/Br)c(=O)[nH]c2=O)C[C@@H]1OC(=O)CCC(=O)[O-].[Na+]` [Sodium Salt], the IC50 in data set [1] (setting [8]) amounted to 12000 nM. The MCC at 96 h in the data set “in vitro [3]” is > 100 µg/mL.

(Values after patent EP0095294A1, “Deoxyuridine compounds, methods for preparing them and their use in medicine” (priority 1982, dated 1983).)
